Assay results reported in article PMC5769417, “Single- and Multiple-Dose Trials to Determine the Pharmacokinetics, Safety, Tolerability, and Sex Effect of Oral Ginsenoside Compound K in Healthy Chinese Volunteers” (Frontiers in Pharmacology, 2018).

Tests used:
[1] = Multiple-dose trial, plasma pharmacokinetics; format: in vivo, human
Procedure: Multiple-dose pharmacokinetics: […] Multiple-dose pharmacokinetics: […] All samples were preserved at −70°C and analyzed with a LC-MS/MS (API 4000 LC-MS/MS, ABI Company, Foster City, CA, USA) at the Institute of Clinical Pharmacology, Central South University (Changsha, China). […] An aqueous solution of a stable internal standard (IS for CK: digoxin, Shijiaoke Biological Technology Co. Ltd., Beijing, China; IS for PPD: coumarin, Sigma-Aldrich, St. Louis, USA) and 1 M phosphate buffer were added to 0.5 ml of thawed sample, and analytical standards and quality control (QC) samples were prepared in the same matrix. All samples were treated with 2 ml of methyl tert-butyl ether (MTBE, CNW technologies GmbH, Duesseldorf, Germany) to precipitate the bulk of plasma proteins. After mechanical shock by mixing for 10 min and a subsequent centrifugation (4,000 rpm, 4°C, 10 min), 1.4 ml of the supernatant was transferred and blow-dried with nitrogen in a water bath at 40°C. Lastly, the residue was dissolved in 100 μl of mobile phase and then was subjected to a mechanical shock by mixing, and centrifuged. The supernatant was subsequently injected into the column for analysis. […] Accuracy and precision of the assay were determined by evaluating the performance of the assay controls. Over the quantification range, the accuracy of the QC samples varied from 85 to 115% and the intra- and inter-assay imprecision was <15%. […] The area under the curve (AUC) from time zero to the last time point (AUClast) and the AUC extrapolated to infinity (AUCinf) were calculated using the linear trapezoidal rule. The slope (elimination rate constant, K) of the terminal phase of the plasma concentration-time profile was determined, using a weighting factor of 1, by the method of least squares (log-linear regression of at least three data points). The t1/2 was estimated as (ln2)/K. […] The apparent volume of distribution (V/F) was equal to (CL/F)/K. The mean residence time (MRT) was calculated as the area under the first moments curve (AUMC) divided by AUC. The dose-normalized PK parameters e.g., Cmax/D and AUClast/D, were obtained by dividing each PK result by the administered dose. The cumulative excretion rate was calculated as the amount of unchanged drug in the urine over a time interval divided by the dose and was expressed as thousand points (‰). On day 15 in the multiple-dose trial, the PK parameters, such as t1/2, CL/F, and V/F at steady state were calculated using the same method as that used for the single-dose trial. In addition, the Tmax at steady state (Tmax,ss), Cmax at steady state (Cmax,ss), and Cmin,ss were obtained from experimental observation after the steady state during the multiple-dose trial. […] The average steady-state drug concentration (Cavg) is calculated as AUCτ/τ, and the fluctuation ratio was calculated as (Cmax,ss − Cmin,ss)/Cavg. The accumulation index was calculated using dosing interval and elimination rate constant as in the following equation: 1/(1 − e^−Kτ).

[2] = Single-dose trial, plasma pharmacokinetics; format: in vivo, human; conditions: single-dose trial, fasting
Procedure: Single-dose pharmacokinetics: The single-dose trial was performed first. […] Drinking before and after medication was prohibited for 2 h, but the amount and time of drinking were not strictly controlled at other times. All subjects had standard lunch and dinner (unified light diet) after medication 4 and 10 h. Single-dose pharmacokinetics: […] We preserved 8 ml specimens into 10 ml centrifuge tubes and stored at −70°C for PK assessment. All samples were preserved at −70°C and analyzed with a LC-MS/MS (API 4000 LC-MS/MS, ABI Company, Foster City, CA, USA) at the Institute of Clinical Pharmacology, Central South University (Changsha, China). […] An aqueous solution of a stable internal standard (IS for CK: digoxin, Shijiaoke Biological Technology Co. Ltd., Beijing, China; IS for PPD: coumarin, Sigma-Aldrich, St. Louis, USA) and 1 M phosphate buffer were added to 0.5 ml of thawed sample, and analytical standards and quality control (QC) samples were prepared in the same matrix. All samples were treated with 2 ml of methyl tert-butyl ether (MTBE, CNW technologies GmbH, Duesseldorf, Germany) to precipitate the bulk of plasma proteins. After mechanical shock by mixing for 10 min and a subsequent centrifugation (4,000 rpm, 4°C, 10 min), 1.4 ml of the supernatant was transferred and blow-dried with nitrogen in a water bath at 40°C. Lastly, the residue was dissolved in 100 μl of mobile phase and then was subjected to a mechanical shock by mixing, and centrifuged. The supernatant was subsequently injected into the column for analysis. […] Accuracy and precision of the assay were determined by evaluating the performance of the assay controls. Over the quantification range, the accuracy of the QC samples varied from 85 to 115% and the intra- and inter-assay imprecision was <15%. PK parameters were derived according to noncompartmental analysis and actual elapsed time from dosing by WinNonlin version 6.1 (Pharsight Corporation, Mountain View, CA, USA). […] The area under the curve (AUC) from time zero to the last time point (AUClast) and the AUC extrapolated to infinity (AUCinf) were calculated using the linear trapezoidal rule. The slope (elimination rate constant, K) of the terminal phase of the plasma concentration-time profile was determined, using a weighting factor of 1, by the method of least squares (log-linear regression of at least three data points). The t1/2 was estimated as (ln2)/K. […] The apparent volume of distribution (V/F) was equal to (CL/F)/K. The mean residence time (MRT) was calculated as the area under the first moments curve (AUMC) divided by AUC. The dose-normalized PK parameters e.g., Cmax/D and AUClast/D, were obtained by dividing each PK result by the administered dose. The cumulative excretion rate was calculated as the amount of unchanged drug in the urine over a time interval divided by the dose and was expressed as thousand points (‰).

[3] = 100 mg oral after breakfast, Day 1
[4] = 100 mg qd oral after breakfast, Day 15
[5] = 200 mg oral after breakfast, Day 1
[6] = 200 mg qd oral after breakfast, Day 15
[7] = 400 mg oral after breakfast, Day 1
[8] = 400 mg qd oral after breakfast, Day 15

In the case of `CC(C)=CCC[C@](C)(O)[C@H]1CC[C@]2(C)[C@@H]1[C@H](O)C[C@@H]1[C@@]3(C)CC[C@H](O)C(C)(C)[C@@H]3CC[C@]12C` [20(S)-PPD, 20(S)-protopanaxadiol], the AUClast [1, 3] is reported as 60.6 ± 44.9 ng·h/mL, the Cmax [1, 3] is reported as 1.8 ± 1.1 ng/mL and the “Tmax, median (range)” value [1, 3] is reported as 24.0 (24.0–36.0) h. For the same compound, the AUClast [1, 4] was 154.5 ± 81.8 ng·h/mL, the Cmax [1, 4] was 5.0 ± 2.5 ng/mL and the “Tmax, median (range)” value [1, 4] was 5.5 (0.3–24.0) h. The AUClast [1, 5] was 54.1 ± 58.8 ng·h/mL, the Cmax [1, 5] was 2.3 ± 3.4 ng/mL and the “Tmax, median (range)” value [1, 5] was 7.0 (4.0-48.0) h. The AUClast [1, 6] was 170.9 ± 191.0 ng·h/mL, the Cmax [1, 6] was 5.7 ± 6.1 ng/mL and the “Tmax, median (range)” value [1, 6] was 6.0 (0.3–24.0) h. For the same compound, the AUClast [1, 7] was 133.1 ± 127.6 ng·h/mL, the Cmax [1, 7] was 4.3 ± 3.6 ng/mL and the “Tmax, median (range)” value [1, 7] was 16.0 (3.0–36.0) h. The AUClast [1, 8] was 463.1 ± 512.3 ng·h/mL, the Cmax [1, 8] was 11.0 ± 10.2 ng/mL and the “Tmax, median (range)” value [1, 8] was 5.5 (0.5–8.0) h. The “concentration of metabolite relative to the parent drug” value ([1]; Day 1, 100–400 mg CK) was 0.08–0.16%, the AUClast ([2]; 25 mg oral) was 32.4 ± 26.2 ng·h/mL and the Cmax ([2]; 25 mg oral) was 1.6 ± 1.2 ng/mL. For the same compound, the “Tmax, median (range)” value ([2]; 25 mg oral) was 12.0 (8.0–24.0) h, the AUClast ([2]; 50 mg oral) was 43.9 ± 12.0 ng·h/mL and the Cmax ([2]; 50 mg oral) was 1.8 ± 0.6 ng/mL. For the same compound, the “Tmax, median (range)” value ([2]; 50 mg oral) was 24.0 (12.0–24.0) h, the AUClast ([2]; 100 mg oral) was 167.6 ± 125.0 ng·h/mL and the Cmax ([2]; 100 mg oral) was 6.3 ± 4.2 ng/mL. For the same compound, the “Tmax, median (range)” value ([2]; 100 mg oral) was 24.0 (12.0–36.0) h, the AUClast ([2]; 200 mg oral) was 117.8 ± 94.9 ng·h/mL and the Cmax ([2]; 200 mg oral) was 3.5 ± 2.7 ng/mL. For the same compound, the “Tmax, median (range)” value ([2]; 200 mg oral) was 24.0 (6.0–36.0) h, the AUClast ([2]; 400 mg oral) was 157.1 ± 174.6 ng·h/mL and the Cmax ([2]; 400 mg oral) was 4.8 ± 4.3 ng/mL. For the same compound, the “Tmax, median (range)” value ([2]; 400 mg oral) was 24.0 (5.0–48.0) h, the AUClast ([2]; 600 mg oral) was 269.8 ± 251.4 ng·h/mL and the Cmax ([2]; 600 mg oral) was 9.5 ± 9.8 ng/mL. The “Tmax, median (range)” value ([2]; 600 mg oral) was 36.0 (24.0–72.0) h, the AUClast ([2]; 800 mg oral) was 179.1 ± 171.0 ng·h/mL and the Cmax ([2]; 800 mg oral) was 5.1 ± 5.3 ng/mL. For the same compound, the “Tmax, median (range)” value ([2]; 800 mg oral) was 30.0 (3.0–72.0) h.
